Laboratory results reported in PubChem BioAssay (NCI).
Where “and” joins values, the source holds several entries; their conditions need not be identical. Equal entries are not always repeated.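 Growth conditions: 96-well plates. Treatment: test compound, 48 hours, 5 concentrations. Analysis: linear interpolation between bracketing concentrations; unreached endpoints set to highest concentration. GI50 = concentration required for 50% inhibition of growth. TGI denotes the concentration required for complete inhibition of growth.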

Legend:
Assay in all cases: inhibition of tumour cell growth, NCI panel, 48 h
SF-539 CNS = system: SF-539 CNS
A549 NSCLC = system: A549 NSCLC
OVCAR-3 ovarian = system: OVCAR-3 ovarian
NCI/ADR-RES ovarian = system: NCI/ADR-RES ovarian
K-562 leukemia = system: K-562 leukemia
HOP-92 NSCLC = system: HOP-92 NSCLC
RXF 393 renal = system: RXF 393 renal
786-0 renal = system: 786-0 renal
SK-MEL-2 melanoma = system: SK-MEL-2 melanoma
HCC-2998 colon = system: HCC-2998 colon

Structure (SMILES)	TGI (SF-539 CNS)	TGI (A549 NSCLC)	TGI (OVCAR-3 ovarian)	TGI (NCI/ADR-RES ovarian)	TGI (K-562 leukemia)	TGI (HOP-92 NSCLC)	TGI (RXF 393 renal)	TGI (786-0 renal)	TGI (SK-MEL-2 melanoma)	TGI (HCC-2998 colon)	GI50 (SF-539 CNS)	GI50 (A549 NSCLC)	GI50 (OVCAR-3 ovarian)	GI50 (NCI/ADR-RES ovarian)	GI50 (K-562 leukemia)	GI50 (HOP-92 NSCLC)	GI50 (RXF 393 renal)	GI50 (SK-MEL-2 melanoma)
COc1ccc(-c2nnc(-c3ccncc3)o2)cc1	> 100 µM	> 100 µM	> 100 µM	> 100 µM	> 100 µM	> 100 µM	> 100 µM	> 100 µM	> 100 µM	–	–	–	–	–	–	–	–	–
COC(=O)C(Cc1ccccc1)NC(=O)c1ccc(CNC(=S)NCc2cccc(CNC(=S)NCc3ccccc3)c2)cc1 (configuration not stated)	> 62.5 µM	> 62.5 µM	> 62.5 µM	> 62.5 µM	> 62.5 µM	> 62.5 µM	> 62.5 µM	> 62.5 µM	> 62.5 µM	> 62.5 µM	–	–	–	–	–	–	–	–
Cc1[nH]c(=O)nc2nc3ccc(Cl)cc3c(NC(C)(CO)CO)c12	> 100 µM	> 100 µM	> 100 µM	> 100 µM	> 100 µM	> 100 µM	88.8 µM	> 100 µM	> 100 µM	> 100 µM	–	–	–	–	–	–	–	–
CC(=O)NC(C)c1ccc(N=NN2CCCC2)cc1 (configuration not stated)	> 100 µM	> 100 µM	> 100 µM	> 100 µM	–	> 100 µM	> 100 µM	> 100 µM	> 100 µM	> 100 µM	–	–	–	–	–	–	–	–
C=CC[N+](CCO)(CCO)CCCCCCCCCCCCCCCCCC	13.1 µM	35 µM	27.1 µM	55.8 µM	18.2 µM	3.91 µM	5.24 µM	–	32.7 µM	10.6 µM	–	–	–	–	–	–	–	–
N/C(=N\N=C\c1cc2c(cc1Cl)OCO2)NO	> 95.6 µM	> 100 µM	> 24.6 µM	57.2 µM	> 100 µM	> 95.1 µM	> 100 µM	–	> 88.3 µM	97.8 µM	–	–	–	–	–	–	–	–
CCOC(=O)c1nc2cc(C(F)(F)F)ccc2nc1Nc1ccc(F)cc1	55.9 µM	> 100 µM	> 100 µM	> 100 µM	39.9 µM	49.6 µM	> 100 µM	> 100 µM	> 100 µM	> 100 µM	–	–	–	–	–	–	–	–
NNC(=O)CCC(NS(=O)(=O)c1ccc(Cl)cc1)C(=O)NN (configuration not stated)	> 100 µM	> 100 µM	> 100 µM	> 100 µM	> 100 µM	> 100 µM	> 100 µM	> 100 µM	> 100 µM	> 100 µM	–	–	–	–	–	–	–	–
CN(C)CCNC(=O)c1cccc2[nH]c(-c3ccncc3)nc12	6.82 µM	> 44.9 µM	> 46.9 µM	> 100 µM	> 100 µM	20.7 µM	14.5 µM	4.15 µM	11.5 µM	4.34 µM	–	–	–	–	–	–	–	–
COc1cc([C@@H]2c3cc4c(cc3[C@@H](N=Cc3ccc(C(=O)O[C@@H](C(=O)O[C@H]5C[C@@]6(O)[C@@H](OC(=O)c7ccccc7)[C@@H]7[C@]8(OC(C)=O)CO[C@@H]8C[C@H](O)[C@@]7(C)C(=O)[C@H](OC(C)=O)C(=C5C)C6(C)C)[C@@H](NC(=O)c5ccccc5)c5ccccc5)cc3)[C@H]3COC(=O)[C@H]23)OCO4)cc(OC)c1O	1.47 µM	> 50 µM	0.164 µM	> 50 µM	> 50 µM	> 50 µM	> 31.1 µM	> 50 µM	–	2.92 µM	–	–	–	–	–	–	–	–
CCCCC1(N=[N+]=[N-])C(=O)C2C=CC=C3c4ccccc4N(C1=O)C32 (configuration not stated)	> 31.6 µM	> 31.6 µM	> 31.6 µM	> 31.6 µM	> 31.6 µM	> 10 µM	23.7 µM	> 31.6 µM	21.5 µM	> 31.6 µM	–	–	–	–	–	–	–	–
CC(O)c1cc2c(s1)C(=O)c1scc(C(C)O)c1C2=O (configuration not stated)	–	3.98 µM	–	1.05 µM	> 100 µM	7.07 µM	2.57 µM	6.39 µM	0.606 µM	3.46 µM	–	–	–	–	–	–	–	–
C=C1C(=O)O[C@@H]2OC3(C)CCC4C(C)CCC1C42OO3 (some centres not stated)	11.7 µM and 6.62 µM	23.1 µM and 18.7 µM	19.6 µM and 10 µM	18.6 µM and 6.51 µM	6.76 µM and 18.1 µM	6.5 µM and 4.48 µM	9.65 µM	–	15.4 µM and 5.51 µM	25.9 µM	3.07 µM	7.23 µM	7.42 µM	4.17 µM	2.32 µM	2.54 µM	3.31 µM	3.79 µM
O=C(NN1C(=O)CSC1c1ccco1)c1ccncc1 (configuration not stated)	> 100 µM	> 100 µM	> 100 µM	> 100 µM	> 100 µM	> 100 µM	> 100 µM	> 100 µM	> 100 µM	> 100 µM	–	–	–	–	–	–	–	–
Cc1ccc(C(=O)C2=CN=C3C(=O)N(c4ccccc4)N(C)C3(C)C2=N)cc1 (configuration not stated)	> 100 µM	> 100 µM	> 100 µM	> 100 µM	> 100 µM	> 100 µM	> 100 µM	> 100 µM	> 100 µM	> 100 µM	–	–	–	–	–	–	–	–
COc1cc(/C=c2/c3ccccc3n3c2cc(-c2ccccc2)[n+]3C)cc(OC)c1OC	8.64 µM	> 100 µM	6.82 µM	> 100 µM	15.4 µM	12.3 µM	6.18 µM	16.4 µM	8.06 µM	19 µM	–	–	–	–	–	–	–	–
C[C@]12CC[C@H](O)CC1=CC[C@@H]1[C@@H]2CC[C@]2(C)c3nc(Cl)ccc3C[C@@H]12	37.2 µM	96.9 µM	> 73.2 µM	> 100 µM	> 100 µM	> 100 µM	> 100 µM	> 100 µM	> 100 µM	> 100 µM	–	–	–	–	–	–	–	–
Cc1cc2c(cc1-c1cc3c(cc1C)C(C(C)C)=C(O)C(=O)/C3=C\Nc1c(C)n(C)n(-c3ccccc3)c1=O)/C(=C/Nc1c(C)n(C)n(-c3ccccc3)c1=O)C(=O)C(O)=C2C(C)C	> 100 µM	> 100 µM	> 100 µM	> 100 µM	> 100 µM	> 100 µM	> 100 µM	> 100 µM	> 100 µM	–	–	–	–	–	–	–	–	–
CC1=Nc2c(C#N)ncn2N=C(C)C1	> 100 µM	> 100 µM	> 100 µM	> 100 µM	> 100 µM	> 100 µM	> 100 µM	> 100 µM	> 100 µM	–	–	–	–	–	–	–	–	–
COc1ccc2oc(=Nc3ccc(F)cc3)c(C(N)=O)cc2c1	–	> 100 µM	> 100 µM	> 100 µM	> 100 µM	95.5 µM	37.3 µM	40.4 µM	74.7 µM	> 100 µM	–	–	–	–	–	–	–	–
